US20220402901A1 (Bial - R&D Investments, S.A., priority 2019, published 2022)
Values after ≈ are worked out from the molar mass of the structure shown.

Key:
[1] = target: T1, Human acid ceramidase (hACR) (Homo sapiens, UniProt Q13510); assay: Acid ceramidase biochemical fluorescent assay (cell lysates overexpressing acid ceramidase, substrate Rbm14-12); conditions: 10 μg lysate protein, 1 hr preincubation at RT, pH 4.5, Rbm14-12 6.3 μM
T1 construct: expressed in transfected cells; lysates of cells overexpressing acid ceramidase
T1 sequence (Q13510 22-395): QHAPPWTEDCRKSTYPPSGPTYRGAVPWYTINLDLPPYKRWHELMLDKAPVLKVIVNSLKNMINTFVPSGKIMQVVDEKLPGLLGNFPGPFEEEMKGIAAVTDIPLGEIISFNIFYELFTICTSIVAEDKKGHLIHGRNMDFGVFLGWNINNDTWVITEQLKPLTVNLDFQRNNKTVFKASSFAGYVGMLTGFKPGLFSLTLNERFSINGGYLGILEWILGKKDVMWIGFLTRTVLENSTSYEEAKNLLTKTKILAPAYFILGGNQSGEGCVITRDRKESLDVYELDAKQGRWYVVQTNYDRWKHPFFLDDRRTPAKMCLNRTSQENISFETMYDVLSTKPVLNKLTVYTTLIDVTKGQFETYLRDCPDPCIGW
Method: The ability of exemplary compounds to inhibit acid ceramidase was measured.
Cell lysates overexpressing acid ceramidase were used as the enzyme source for compound potency determination in a biochemical fluorescent assay. Briefly, compounds were preincubated with 10 μg protein of cell lysates in a dose-response manner for 1 hr at RT in the assay buffer containing 25 mM NaAC and 100 mM NaCl, pH 4.5. The reaction was initiated by the addition of substrate Rbm14-12 at a final concentration of 6.3 μM. The reaction was run at RT for 1 hr before it was stopped by the addition of the stopping buffer containing 20% methanol (v/v), 1 mg/ml NaIO4, 0.1 M glycine, pH 10.6. The samples were incubated with the stopping buffer at RT for 1 hr to allow the fluorescent product to be formed. Finally the plate was read with SpectraMax i3 plate reader (Molecular Devices) at ex360 nm and em446 nm. Data were collected and used to determine the IC50 values of compounds by curve fitting to the four-parameter inhibition equation.
The symbol “A” indicates inhibition of less than 0.2 μM; the symbol “B” indicates inhibition in the range of 0.2 μM up to 1 μM; and the symbol “C” indicates inhibition of greater than 1 μM.

[2] = Compound solubility in water; type: physicochemical; conditions: read-out: Solubility in H2O

| Compound | IC50 [1] [nM] | solubility [2] [µM] |
| --- | --- | --- |
| CN1CCC(n2c(=O)oc3cc(C4CCN(C(=O)NCCCCc5ccccc5)CC4)ccc32)CC1 [Example 6, 4-[3-(1-Methyl-4-piperidyl)-2-oxo-1,3-benzoxazol-6-yl]-N-(4-phenylbutyl)piperidine-1-carboxamide] | > 1000 | 10 (≈ 4.91 µg/mL) |
| CC1CC(c2ccc3c(c2)oc(=O)n3C)CCN1C(=O)NCCCCc1ccccc1 (mixture of isomers) [Example 16, 2-methyl-4-(3-methyl-2-oxo-1,3-benzoxazol-6-yl)-N-(4-phenylbutyl)piperidine-1-carboxamide] | < 200 | 2.2 |
| CN(C)CCn1c(=O)oc2cc(N3CCN(C(=O)NCCCCc4ccccc4)CC3)ccc21 [Example 47, 4-[3-[2-(Dimethylamino)ethyl]-2-oxo-1,3-benzoxazol-6-yl]-N-(4-phenylbutyl)piperazine-1-carboxamide] | > 1000 | 250 (≈ 116 µg/mL) |
| Cn1c(=O)oc2c(C3CCN(C(=O)NCCCCc4ccccc4)CC3)cccc21 [Example 7, 4-(3-Methyl-2-oxo-1,3-benzoxazol-7-yl)-N-(4-phenylbutyl)piperidine-1-carboxamide] | > 1000 | 13 (≈ 5.3 µg/mL) |
| Cn1c(=O)oc2cccc(C3CCN(C(=O)NCCCCc4ccccc4)CC3)c21 [Example 10, 4-(3-Methyl-2-oxo-1,3-benzoxazol-4-yl)-N-(4-phenylbutyl)piperidine-1-carboxamide] | > 1000 | 9 (≈ 3.67 µg/mL) |
| CC(C)CNC(=O)N1CCC(c2cccc3c2oc(=O)n3C)CC1 [Example 8, N-iso-Butyl-4-(3-methyl-2-oxo-1,3-benzoxazol-7-yl)piperidine-1-carboxamide] | > 1000 | 143 (≈ 47.4 µg/mL) |
| Cn1c(=O)oc2cc(C3CCN(C(=O)NCCCCc4ccccc4)C(C)(C)C3)ccc21 (stereo not drawn) [Example 24, 2,2-Dimethyl-4-(3-methyl-2-oxo-1,3-benzoxazol-6-yl)-N-(4-phenylbutyl)piperidine-1-carboxamide] | < 200 | 1.3 (≈ 0.566 µg/mL) |
| Cn1c(=O)oc2cc(N3CCN(C(=O)NCCC4CC4)C(C)(C)C3)ccc21 [Example 53, N-(2-Cyclopropylethyl)-2,2-dimethyl-4-(3-methyl-2-oxo-1,3-benzoxazol-6-yl)piperazine-1-carboxamide] | > 1000 | 20.5 (≈ 7.64 µg/mL) |
| Cn1c(=O)oc2cc(N3CCN(C(=O)NCCCCC4CC4)C(C)(C)C3)ccc21 [Example 52, N-(4-Cyclopropylbutyl)-2,2-dimethyl-4-(3-methyl-2-oxo-1,3-benzoxazol-6-yl)piperazine-1-carboxamide] | < 200 | 0.9 (≈ 0.36 µg/mL) |
| Cn1c(=O)oc2cc(C3CCN(C(=O)NCCc4ccccc4)C(C)(C)C3)ccc21 (stereo not drawn) [Example 25, 2,2-Dimethyl-4-(3-methyl-2-oxo-1,3-benzoxazol-6-yl)-N-(2-phenylethyl)piperidine-1-carboxamide] | < 200 | 26 (≈ 10.6 µg/mL) |
| Cn1c(=O)oc2ccc(C3CCN(C(=O)NCCCCc4ccccc4)CC3)cc21 [Example 9, 4-(3-Methyl-2-oxo-1,3-benzoxazol-5-yl)-N-(4-phenylbutyl)piperidine-1-carboxamide] | > 1000 | 15 (≈ 6.11 µg/mL) |
| CC(C)CNC(=O)N1CCC(c2ccc3c(c2)oc(=O)n3C)C[C@@H]1C (stereo partly drawn) [Example 22, N-iso-Butyl (2S)-methyl-4-(3-methyl-2-oxo-1,3-benzoxazol-6-yl)piperidine-1-carboxamide] | 200 to 1000 | 235 (≈ 81.2 µg/mL) |
| Cn1c(=O)oc2cc(N3CCN(C(=O)NCCc4ccccc4)C(C)(C)C3)ccc21 [Example 51, 2,2-Dimethyl-4-(3-Methyl-2-oxo-1,3-benzoxazol-6-yl)-N-(2-phenylethyl)piperazine-1-carboxamide] | 200 to 1000 | 0.9 (≈ 0.368 µg/mL) |
| Cn1c(=O)oc2cc(N3CCN(C(=O)NCCOCc4ccccc4)C(C)(C)C3)ccc21 [Example 57, N-(2-Benzyloxyethyl)-2,2-dimethyl-4-(3-methyl-2-oxo-1,3-benzoxazol-6-yl)piperazine-1-carboxamide] | 200 to 1000 | 3.5 (≈ 1.53 µg/mL) |
| Cn1c(=O)oc2cc(C3COCC(C)(C)N3C(=O)NCCCCc3ccccc3)ccc21 (stereo not drawn) [Example 42, 3,3-Dimethyl-5-(3-methyl-2-oxo-1,3-benzoxazol-6-yl)-N-(4-phenylbutyl) morpholine-4-carboxamide] | < 200 | 14.8 (≈ 6.48 µg/mL) |
| Cn1c(=O)oc2cc(C3CCN(C(=O)NCCCCC4CC4)C(C)(C)C3)ccc21 (stereo not drawn) [Example 31, N-(4-Cyclopropylbutyl)-2,2-dimethyl-4-(3-methyl-2-oxo-1,3-benzoxazol-6-yl)piperidine-1-carboxamide] | < 200 | 0.3 (≈ 0.12 µg/mL) |
| Cn1c(=O)oc2cc(C3CCN(C(=O)NCCC4CC4)C(C)(C)C3)ccc21 (stereo not drawn) [Example 29, N-(2-Cyclopropylethyl)-2,2-dimethyl-4-(3-methyl-2-oxo-1,3-benzoxazol-6-yl)piperidine-1-carboxamide] | 200 to 1000 | 250 (≈ 92.9 µg/mL) |
| O=C(NCCCCc1ccccc1)N1CCC(c2ccc3[nH]c(=O)oc3c2)CC1 [Example 1, 4-(2-Oxo-3H-1,3-benzoxazol-6-yl)-N-(4-phenylbutyl)piperidine-1-carboxamide] | 200 to 1000 | 2.4 (≈ 0.944 µg/mL) |
| CCCCCNC(=O)N1C(c2ccc3c(c2)oc(=O)n3C)COCC1(C)C (stereo not drawn) [Example 43] | < 200 | 69.1 (≈ 25.9 µg/mL) |
| CN(C)CCn1c(=O)oc2cc(N3CCN(C(=O)NCCCCc4ccccc4)C(C)(C)C3)ccc21 [Example 58, 4-[3-[2-(Dimethylamino)ethyl]-2-oxo-1,3-benzoxazol-6-yl]-2,2-dimethyl-N-(4-phenylbutyl)piperazine-1-carboxamide] | < 200 | 41.8 (≈ 20.6 µg/mL) |

Next, values leading:

| IC50 [1] [nM] | solubility [2] [µM] | Compound |
| --- | --- | --- |
| > 1000 | 8 (≈ 3.26 µg/mL) | Cn1c(=O)oc2cc(C3CCCN(C(=O)NCCCCc4ccccc4)C3)ccc21 (stereo not drawn) [Example 12, 3-(3-Methyl-2-oxo-1,3-benzoxazol-6-yl)-N-(4-phenylbutyl)piperidine-1-carboxamide] |
| < 200 | 6.8 (≈ 3.06 µg/mL) | Cn1c(=O)oc2cc(N3CCN(C(=O)NCCCCc4ccccc4)C(C)(C)C3=O)ccc21 [Example 64, 2,2-Dimethyl-4-(3-methyl-2-oxo-1,3-benzoxazol-6-yl)-3-oxo-N-(4-phenylbutyl)piperazine-1-carboxamide] |
| < 200 | 0.5 (≈ 0.218 µg/mL) | CC1CN(c2ccc3c(c2)oc(=O)n3C)CC(C)N1C(=O)NCCCCc1ccccc1 (stereo not drawn) [Example 59, 2,6-Dimethyl-4-(3-methyl-2-oxo-1,3-benzoxazol-6-yl)-N-(4-phenylbutyl)piperazine-1-carboxamide] |
| > 1000 | 51.4 (≈ 21.7 µg/mL) | Cn1c(=O)oc2cc(N3CCN(C(=O)NCCCCc4ccccc4)CC3=O)ccc21 [Example 63, 4-(3-Methyl-2-oxo-1,3-benzoxazol-6-yl)-3-oxo-N-(4-phenylbutyl)piperazine-1-carboxamide] |
| < 200 | 10 | C[C@H]1CC(c2ccc3c(c2)oc(=O)n3C)CCN1C(=O)NCCCCc1ccccc1 (mixture of isomers) [Example 20, (2S)-methyl-4-(3-methyl-2-oxo-1,3-benzoxazol-6-yl)-N-(4-phenylbutyl)piperidine-1-carboxamide] |
| < 200 | 0.3 (≈ 0.131 µg/mL) | Cn1c(=O)oc2cc(N3CCN(C(=O)NCCCCc4ccccc4)C(C)(C)C3)ccc21 [Example 50, 2,2-Dimethyl-4-(3-methyl-2-oxo-1,3-benzoxazol-6-yl)-N-(4-phenylbutyl)piperazine-1-carboxamide] |
| > 1000 | 241 (≈ 98.4 µg/mL) | Cn1c(=O)oc2cc(C3CNCCN3C(=O)NCCCCc3ccccc3)ccc21 (stereo not drawn) [Example 39, 2-(3-Methyl-2-oxo-1,3-benzoxazol-6-yl)-N-(4-phenylbutyl)piperazine-1-carboxamide] |
| > 1000 | 30 (≈ 12.2 µg/mL) | Cn1c(=O)oc2cc(C3CCCCN3C(=O)NCCCCc3ccccc3)ccc21 (stereo not drawn) [Example 37, 2-(3-Methyl-2-oxo-1,3-benzoxazol-6-yl)-N-(4-phenylbutyl)piperidine-1-carboxamide] |
| 200 to 1000 | 4.3 (≈ 1.82 µg/mL) | C[C@@H]1CN(c2ccc3c(c2)oc(=O)n3C)CCN1C(=O)NCCCCc1ccccc1 [Example 48, (2R)-2-Methyl-4-(3-methyl-2-oxo-1,3-benzoxazol-6-yl)-N-(4-phenylbutyl)piperazine-1-carboxamide] |
| 200 to 1000 | 6 (≈ 2.45 µg/mL) | Cn1c(=O)oc2cc(N3CCN(C(=O)NCCCCc4ccccc4)CC3)ccc21 [Example 46, 4-(3-Methyl-2-oxo-1,3-benzoxazol-6-yl)-N-(4-phenylbutyl)piperazine-1-carboxamide] |
